According to patent publication US20230150970A1, “AMINOPYRIMIDINE DERIVATIVES AND THEIR USE AS ARYL HYDROCARBON RECEPTOR MODULATORS” (DONG-A ST CO., LTD., priority 2020, published 2023):

target: T1, AhR (Homo sapiens, UniProt P35869); assay: In Vitro Assay 1: XRE-luciferase reporter assay, antagonism in human cell line (HepG2); settings: Assay 1: AhR-Luc Human Antagonism (IC50, nM), unmarked values: kynurenine 200 μM, 6 hours
T1 sequence (P35869 11-848): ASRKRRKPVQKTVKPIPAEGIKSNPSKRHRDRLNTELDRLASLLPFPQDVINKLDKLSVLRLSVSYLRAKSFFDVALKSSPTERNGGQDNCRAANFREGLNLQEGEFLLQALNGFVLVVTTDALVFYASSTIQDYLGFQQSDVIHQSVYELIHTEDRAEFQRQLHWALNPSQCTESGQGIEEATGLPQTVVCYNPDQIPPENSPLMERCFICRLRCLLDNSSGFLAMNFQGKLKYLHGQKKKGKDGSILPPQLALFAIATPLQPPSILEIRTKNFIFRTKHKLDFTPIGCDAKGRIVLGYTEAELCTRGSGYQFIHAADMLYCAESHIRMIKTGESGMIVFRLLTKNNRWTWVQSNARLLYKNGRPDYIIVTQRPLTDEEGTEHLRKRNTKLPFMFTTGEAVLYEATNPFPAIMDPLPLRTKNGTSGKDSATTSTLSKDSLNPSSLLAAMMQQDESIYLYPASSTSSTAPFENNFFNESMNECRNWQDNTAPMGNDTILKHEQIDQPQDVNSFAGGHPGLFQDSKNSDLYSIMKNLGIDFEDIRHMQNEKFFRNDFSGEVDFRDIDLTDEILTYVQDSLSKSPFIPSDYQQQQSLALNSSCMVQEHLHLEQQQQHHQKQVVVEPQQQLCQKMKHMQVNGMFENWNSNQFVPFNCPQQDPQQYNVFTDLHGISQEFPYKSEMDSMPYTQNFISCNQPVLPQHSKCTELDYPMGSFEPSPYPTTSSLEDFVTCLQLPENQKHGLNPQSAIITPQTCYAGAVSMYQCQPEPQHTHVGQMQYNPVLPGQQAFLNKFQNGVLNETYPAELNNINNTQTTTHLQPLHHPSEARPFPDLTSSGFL
Text: In Vitro XRE-Luciferase Reporter Assay (In Vitro Assay 1, 2, 3) AhR activation leads the induction of target gene expression such as CYP1A1 and CYPIB1 by AhR binding to AhR-responsive DNA elements also known as xenobiotics responsive elements (XREs). The assay for measuring AhR activity herein is the luciferase assay using cell lines transfected with luciferase reporter plasmid containing XREs at the upstream of the reporter gene. Cells transfected with XRE-luciferase reporter (XRE-Luc), plasmid drive luciferase activity reflecting activation and inhibition of AhR in the cells. […] Kynurenine (an endogenous AhR agonist), was used to stimulate cells to test antagonistic properties of the compounds. The half-maximal inhibitory concentration (IC50), or half-maximal effective concentration (EC50), value was calculated using nonlinear regression (four parameters), with Prism8.0 software (GraphPad).
In Vitro Assay 1: Antagonism in Human Cell Line
HepG2 (human hepatoma cell line) cell line with a XRE-luciferase reporter either transiently or stably (Invivogen) were plated in complete medium and incubated at 37° C. in a CO2 incubator. After 24 hours, cells were treated with kynurenine (50* or 200 μM) alone (negative control) or with test compounds for 6 hours. Luciferase activity was measured with a commercial kit such as the Promega Luciferase kit or Invivogen Luciferase kit. Relative luciferase activity (Firefly/Nano-Luc) was used to calculate IC50 values. […] (IC50 values are grouped as A, B, C and D, whereby A: IC50<0.01 μM; B: 0.01<IC50<0.1 μM; C: 0.1<IC50<1.0 μM; D: IC50>1.0 μM)

Structure (SMILES)	IC50 [nM]
CC(=O)Nc1cc(-c2cc(N3CC[C@H](O)C3)nc(-c3cccnc3)n2)ccc1N1CCOCC1 [Example 299, (S)—N-(5-(6-(3-hydroxypyrrolidin-1-yl)-2-(pyridin-3-yl)pyrimidin-4-yl)-2-morpholinophenyl)acetamide]	> 1000
OCC1CN(c2cc(-c3ccc(Cl)cc3)nc(-c3cccnc3)n2)C1 [Example 320, (1-(6-(4-chlorophenyl)-2-(pyridin-3-yl)pyrimidin-4-yl)azetidin-3-yl)methanol]	10 to 100
OCC1CCN(c2cc(-c3ccc(Cl)cc3O)nc(-c3cccnc3)n2)CC1 [Example 271, 5-chloro-2-(6-(4-(hydroxymethyl)piperidin-1-yl)-2-(pyridin-3-yl)pyrimidin-4-yl)phenol]	< 10
O[C@H]1CCN(c2cc(-c3ccc(Cl)cc3)nc(-c3cnc(F)c(F)c3)n2)C1 [Example 342, (S)-1-(6-(4-chlorophenyl)-2-(5,6-difluoropyridin-3-yl)pyrimidin-4-yl)pyrrolidin-3-ol]	> 1000
Cn1cc(-c2nc(-c3ccc(N4CCOCC4)c(F)c3)cc(N3CCC(CO)CC3)n2)cn1 [Example 287, (1-(6-(3-fluoro-4-morpholinophenyl)-2-(1-methyl-1H-pyrazol-4-yl)pyrimidin-4-yl)piperidin-4-yl)methanol]	100 to 1000
CS(=O)(=O)N1CCN(c2cc(-c3ccc(C(F)(F)F)cc3)nc(-c3cccnc3)n2)CC1 [Example 341, 4-(4-(methylsulfonyl)piperazin-1-yl)-2-(pyridin-3-yl)-6-(4-(trifluoromethyl)phenyl)pyrimidine]	> 1000
CN(C)C1CN(c2cc(-c3ccc(Cl)cc3)nc(-c3cccnc3)n2)CCC1O (centres unmarked) [Example 354, 1-(6-(4-chlorophenyl)-2-(pyridin-3-yl)pyrimidin-4-yl)-3-(dimethylamino)piperidin-4-ol]	> 1000
OCC1CCN(c2cc(-c3ccc(F)nc3)nc(-c3cccnc3)n2)CC1 [Example 318, (1-(6-(6-fluoropyridin-3-yl)-2-(pyridin-3-yl)pyrimidin-4-yl)piperidin-4-yl)methanol]	10 to 100
OCC1CCN(c2cc(-c3cncc(F)c3)nc(-c3cccnc3)n2)CC1 [Example 294, (1-(6-(5-fluoropyridin-3-yl)-2-(pyridin-3-yl)pyrimidin-4-yl)piperidin-4-yl)methanol]	100 to 1000
OC[C@H]1CCN(c2cc(-c3ccc(Cl)cc3)nc(-c3cccnc3)n2)C[C@@H]1O [Example 259, (3R,4R)-1-(6-(4-chlorophenyl)-2-(pyridin-3-yl)pyrimidin-4-yl)-4-(hydroxymethyl)piperidin-3-ol]	< 10

The remaining lines, values ahead:

IC50 [nM]	Structure (SMILES)
> 1000	Cn1nnc(-c2nc(-c3ccc(Cl)cc3)cc(N3CC[C@H](O)C3)n2)n1 [Example 332, (S)-1-(6-(4-chlorophenyl)-2-(2-methyl-2H-tetrazol-5-yl)pyrimidin-4-yl)pyrrolidin-3-ol]
10 to 100	O=C(CO)NC1CCN(c2cc(-c3ccc(Cl)cc3)nc(-c3cccnc3)n2)CC1 [Example 238, N-(1-(6-(4-chlorophenyl)-2-(pyridin-3-yl)pyrimidin-4-yl)piperidin-4-yl)-2-hydroxyacetamide]
< 10	O[C@H]1CCN(c2cc(-c3ccc(C(F)(F)F)cc3)nc(-c3cccnc3)n2)C1 [Example 340, (S)-1-(2-(pyridin-3-yl)-6-(4-(trifluoromethyl)phenyl)pyrimidin-4-yl)pyrrolidin-3-ol]
> 1000	O=C1COCCN1c1ccc(-c2cc(N3CC[C@H](O)C3)nc(-c3cccnc3)n2)cc1 [Example 367, (S)-4-(4-(6-(3-hydroxypyrrolidin-1-yl)-2-(pyridin-3-yl)pyrimidin-4-yl)phenyl)morpholin-3-one]
10 to 100	OC[C@H]1CCN(c2cc(-c3ccc(Cl)cc3)nc(-c3cccnc3)n2)C[C@H]1F [Example 249, ((3S,4R)-1-(6-(4-chlorophenyl)-2-(pyridin-3-yl)pyrimidin-4-yl)-3-fluoropiperidin-4-yl)methanol]
< 10	OC[C@@H]1CCN(c2cc(-c3ccc(C(F)(F)F)cc3)nc(-c3cccnc3)n2)C[C@H]1F [Example 281, ((3S,4S)-3-fluoro-1-(2-(pyridin-3-yl)-6-(4-(trifluoromethyl)phenyl)pyrimidin-4-yl)piperidin-4-yl)methanol]
10 to 100	CC(O)C(=O)NC1CCN(c2cc(-c3ccc(Cl)cc3)nc(-c3cccnc3)n2)CC1 (centres unmarked) [Example 237, N-(1-(6-(4-chlorophenyl)-2-(pyridin-3-yl)pyrimidin-4-yl)piperidin-4-yl)-2-hydroxypropanamide]

same assay, conditions: Assay 1: AhR-Luc Human Antagonism (IC50, nM), values marked *: kynurenine 50 μM, 6 hours

Structure (SMILES)	IC50 [nM]
CCC1CCCN(c2cc(-c3ccc(Cl)cc3)nc(-c3cccnc3)n2)C1 (centres unmarked) [Example 53, 4-(4-chlorophenyl)-6-(3-ethylpiperidin-1-yl)-2-(pyridin-3-yl)pyrimidine]	> 1000
CN(C)CCC1CCCN1c1cc(-c2ccc(Cl)cc2)nc(-c2cccnc2)n1 (centres unmarked) [Example 165, 2-(1-(6-(4-chlorophenyl)-2-(pyridin-3-yl)pyrimidin-4-yl)pyrrolidin-2-yl)-N,N-dimethylethan-1-amine]	> 1000
FC(F)(F)C1CCCN(c2cc(-c3ccc(Cl)cc3)nc(-c3cccnc3)n2)C1 (centres unmarked) [Example 52, 4-(4-chlorophenyl)-2-(pyridin-3-yl)-6-(3-(trifluoromethyl)piperidin-1-yl)pyrimidine]	100 to 1000
CN1CCC(Nc2cc(-c3ccc(Cl)cc3)nc(-c3cccnc3)n2)CC1 [Example 57, 6-(4-chlorophenyl)-N-(1-methylpiperidin-4-yl)-2-(pyridin-3-yl)pyrimidin-4-amine]	> 1000
CO[C@H]1CN(C)C[C@@H]1Nc1cc(-c2ccc(Cl)cc2)nc(-c2cccnc2)n1 [Example 202, 6-(4-chlorophenyl)-N-((3S,4S)-4-methoxy-1-methylpyrrolidin-3-yl)-2-(pyridin-3-yl)pyrimidin-4-amine]	> 1000
Clc1ccc(-c2cc(N3CCSCC3)nc(-c3cccnc3)n2)cc1 [Example 74, 4-(6-(4-chlorophenyl)-2-(pyridin-3-yl)pyrimidin-4-yl)thiomorpholine]	100 to 1000
Clc1ccc(-c2cc(N3CCCCC3)nc(-c3cccnc3)n2)cc1 [Example 46, 4-(4-chlorophenyl)-6-(piperidin-1-yl)-2-(pyridin-3-yl)pyrimidine]	100 to 1000
OC1CCN(c2cc(-c3ccc(Cl)cc3)nc(-c3cccnc3)n2)CC1 [Example 41, 1-(6-(4-chlorophenyl)-2-(pyridin-3-yl)pyrimidin-4-yl)piperidin-4-ol]	< 10
O[C@H]1CCCN(c2cc(-c3ccc(Cl)cc3)nc(-c3cccnc3)n2)C1 [Example 163, (S)-1-(6-(4-chlorophenyl)-2-(pyridin-3-yl)pyrimidin-4-yl)piperidin-3-ol]	10 to 100

Now from value to molecule:

IC50 [nM]	Structure (SMILES)
10 to 100	O=C(c1ccco1)N1CCN(c2cc(-c3ccc(Cl)cc3)nc(-c3cccnc3)n2)CC1 [Example 86, (4-(6-(4-chlorophenyl)-2-(pyridin-3-yl)pyrimidin-4-yl)piperazin-1-yl)(furan-2-yl)methanone]
> 1000	Clc1ccc(-c2cc(NC[C@H]3CCNC3)nc(-c3cccnc3)n2)cc1 [Example 206, (S)-6-(4-chlorophenyl)-2-(pyridin-3-yl)-N-(pyrrolidin-3-ylmethyl)pyrimidin-4-amine]
100 to 1000	NC1CCN(c2cc(-c3ccc(Cl)cc3)nc(-c3cccnc3)n2)CC1 [Example 64, 1-(6-(4-chlorophenyl)-2-(pyridin-3-yl)pyrimidin-4-yl)piperidin-4-amine]
10 to 100	Clc1ccc(-c2cc(N3CCC4CCCOC4C3)nc(-c3cccnc3)n2)cc1 (centres unmarked) [Example 190, 7-(6-(4-chlorophenyl)-2-(pyridin-3-yl)pyrimidin-4-yl)octahydro-2H-pyrano[2,3-c]pyridine]
> 1000	CC(C)[C@H](CO)Nc1cc(-c2ccc(Cl)cc2)nc(-c2cccnc2)n1 [Example 14, (R)-2-((6-(4-chlorophenyl)-2-(pyridin-3-yl)pyrimidin-4-yl)amino)-3-methylbutan-1-ol]
> 1000	Clc1ccc(-c2cc(NCCCN3CCOCC3)nc(-c3cccnc3)n2)cc1 [Example 75, 6-(4-chlorophenyl)-N-(3-morpholinopropyl)-2-(pyridin-3-yl)pyrimidin-4-amine]
10 to 100	O[C@@H]1CCC[C@H]1Nc1cc(-c2ccc(Cl)cc2)nc(-c2cccnc2)n1 (relative stereo) [Example 68, trans-2-((6-(4-chlorophenyl)-2-(pyridin-3-yl)pyrimidin-4-yl)amino)cyclopentan-1-ol]
10 to 100	Fc1ccc(N2CCN(c3cc(-c4ccc(Cl)cc4)nc(-c4cccnc4)n3)CC2)cc1 [Example 99, 4-(4-chlorophenyl)-6-(4-(4-fluorophenyl)piperazin-1-yl)-2-(pyridin-3-yl)pyrimidine]
100 to 1000	CC[C@@H](Nc1cc(-c2ccc(Cl)cc2)nc(-c2cccnc2)n1)[C@@H](C)O [Example 192, (2R,3R)-3-((6-(4-chlorophenyl)-2-(pyridin-3-yl)pyrimidin-4-yl)amino)pentan-2-ol]
